Measured values as given in paper PMC10150365 (Journal of Medicinal Chemistry, 2023).
Converted amounts (≈) assume the structure as drawn. “And” between values parts separate entries of the source, which are not always exact repeats. Equal values may be shown once. Read-outs that look alike come from different tables or passages of the source. Marks after values point to notes of the source that are not given here.

How the values were obtained:
CH1^doxR = assay: CH1doxR growth inhibition, CellTiter-Blue; format: cell-based, human
CH1^WT = assay: CH1 WT growth inhibition, CellTiter-Blue; format: cell-based; settings: Homo sapiens, CH1WT
Plasma stability = format: in vitro ADME; settings: pooled plasma, read-out: Compound remaining (% of 0 min); for remaining at 15 min, 1 µM: 37 °C
Method: AUCu0-24h was assumed from the mouse efficacy study. […] F=oral bioavailability and
Compd Species Compound remaining (% of 0 min)

[1] = Plasma protein binding and blood-to-plasma ratio; format: in vitro ADME, mouse
[2] = Free fraction in CellTiter-Blue assay medium (dialysis); format: in vitro ADME; settings: dialysis from CellTiter-Blue assay medium; 90% CI
[3] = Rat blood PK (Sprague-Dawley); format: in vivo; settings: SD rats
[4] = Plasma protein binding and blood-to-plasma ratio; settings: for fub: BALB/c mouse blood, fub = fup/B:P; for Plasma, fup: BALB/c mouse, 90% CI
in vitro [5] = settings: human; for recovery: Caco-2, pH 7.4, Recovery
[6] = Plasma protein binding and blood-to-plasma ratio; format: in vitro ADME, rat
RMG-1 = settings: RMG-1, 96 h
SK-OV-3 = assay: cells; format: cell-based, human; settings: for GI50: Homo sapiens
PA1 = settings: PA1, 96 h
[7] = test system: human ovarian cancer cell lines; settings: carboplatin N = 4 cell lines; 1 N = 9 cell lines
OVCAR5 = settings: OVCAR5, 96 h
in vitro [8] = format: in vitro ADME, mouse
physchem [9] = settings: pH 7.4
in vitro [10] = format: in vitro ADME; settings: both sexes, human, microsomes, pH 7.4; n = 1, fraction unbound assumed 1; read-out: Microsome Clint, human (HLM)
[11] = iv PK in CF1 wild-type and P-gp-knockout mice; format: in vivo, mouse; settings: mouse, in vivo, iv, 5 mg/kg, read-out: Vss
P-gp = assay: iv PK in CF1 wild-type and P-gp-knockout mice; format: in vivo, mouse; settings: for Cltb: 5 mg/kg iv, 90% CI, 5 mg/kg
in vitro [12] = format: in vitro ADME; settings: mouse
[13] = test system: P-gp-mediated efflux (CH1^doxR/CH1^WT); format: cell-based, human; settings: ratio of geometric mean GI50 values, CellTiter-Blue
in vitro [14] = format: in vitro ADME; settings: male, Sprague Dawley, rat, microsomes, pH 7.4; n = 1, fraction unbound assumed 1; read-out: Microsome Clint, rat (RLM)
physchem [15] = settings: pH 7.4; remark: listed apart in the source
[16] = female, BALB/c, mouse, in vivo, po, 5 mg/kg

Q: Which results are given for COc1cccc2c1C(=O)c1c(O)c3c(c(O)c1C2=O)C[C@@](O)(C(=O)CO)C[C@@H]3O[C@H]1C[C@H](N)[C@H](O)[C@H](C)O1 [Doxorubicin]?
A: GI50 (CH1^doxR; Homo sapiens, + verapamil 2 µM): 1.9 nM; GI50 (CH1^doxR; Homo sapiens, no verapamil): 310 nM; GI50 (CH1^doxR; no verapamil): 305 nM; GI50 (CH1^WT; + verapamil 2 µM): 0.3 nM; GI50 (CH1^WT; no verapamil): 0.4 nM

Q: Which results are given for Cc1ccc(NC(=O)c2ccc3c(c2)OCCO3)cc1NC(=O)c1ccc2nc(OCCN3CCCC3)ccc2c1 [Compound 1]?
A: remaining at 15 min, 1 µM (Plasma stability; human plasma): 104%; remaining at 30 min, 1 µM (Plasma stability; human plasma): 96.4%; remaining at 60 min, 1 µM (Plasma stability; human plasma): 97%; remaining at 120 min, 1 µM (Plasma stability; human plasma): 95.1%; remaining at 15 min, 1 µM (Plasma stability; mouse plasma): 97.8%; remaining at 30 min, 1 µM (Plasma stability; mouse plasma): 91.3%; remaining at 60 min, 1 µM (Plasma stability; mouse plasma): 93.3%; remaining at 120 min, 1 µM (Plasma stability; mouse plasma): 85.9%; fub ([1]; athymic mouse blood, fub = fup/B:P): 0.015; Plasma, fup ([1]; athymic mouse, 90% CI): 0.025 (0.031-0.020); Assay medium, fua [2]: 0.47 (0.54-0.42); Fmax [3]: 71%; iv Cltb ([3]; iv): 20 mL/min/kg; Free Cav^0–24h ([3]; po (Table S12)): 0.72 nM; Vdu ([3]; Vss/fub): 230 L/kg; Cmax ([3]; female, Sprague-Dawley (CD), rat, whole blood, 5 mg/kg, po): 63 nM; bioavailability at 24 h ([3]; female, Sprague-Dawley (CD), rat, whole blood, po, 5 mg/kg): 11%; Vd ([3]; female, Sprague-Dawley (CD), rat, whole blood, iv, read-out: Vss): 4.4 L/kg; Tmax ([3]; female, Sprague-Dawley, rat, whole blood, 5 mg/kg, po): > 6 h; half-life ([3]; female, Sprague-Dawley, rat, whole blood, 5 mg/kg, terminal, from iv dose): 3.2 h; AUC ([3]; female, Sprague-Dawley, rat, whole blood, po, 5 mg/kg, po, t = 24 h, read-out: po AUC^0–t): 0.84 µM·h; A2B (Caco-2; geometric mean): 2.4 nm/s; B2A (Caco-2; geometric mean): 39 nm/s; A2B + LY335979 (Caco-2; individual experiments): 2.3 nm/s; B2A (Caco-2; individual experiments): 23 nm/s and 46 nm/s and 55 nm/s; B2A + LY335979 (Caco-2; individual experiments): 15 nm/s; fub [4]: 0.0083; Plasma, fup [4]: 0.010; Papp A→B at 2 h, 10 µM (in vitro [5]; Caco-2, pH 7.4): 2.4 ×10⁻⁶ cm/s; recovery (in vitro [5]; A2B + LY335979, geometric mean row): 50%; recovery (in vitro [5]; A2B + LY335979, individual experiments): 50%; recovery (in vitro [5]; A2B, geometric mean row): 90%; recovery (in vitro [5]; A2B, individual experiments): 90%; recovery (in vitro [5]; B2A + LY335979, geometric mean row): 100%; recovery (in vitro [5]; B2A + LY335979, individual experiments): 100%; recovery (in vitro [5]; B2A, geometric mean row): 70%; recovery (in vitro [5]; B2A, individual experiments): 70%; fub ([6]; Sprague Dawley rat blood, fub = fup/B:P): 0.019; Plasma, fup ([6]; Sprague Dawley rat, 90% CI): 0.029 (0.036-0.023)

Q: What does the source list for Carboplatin?
A: pGI50±SEM (n) (RMG-1): < 4.7; SK-OV-3 pGI50 ± SEM (n) (SK-OV-3; 96 h, CellTiter-Blue, pGI50 = −log GI50 (M)): < 4.7; pGI50±SEM (n) (PA1): 5.8; pGI50 across the panel [7]: < 6; pGI50±SEM (n) (OVCAR5): < 5.0

Q: With Cc1ccc(NC(=O)c2ccc3c(c2)OCCO3)cc1NC(=O)c1ccc2nc(CN3CCN(C(C)C)CC3)ccc2c1 [Compound 16, N-(5-(2,3-Dihydrobenzo[b][1,4]dioxine-6-carboxamido)-2-methylphenyl)-2-((4-isopropylpiperazin-1-yl)methyl)quinoline-6-carboxamide] as the compound, how does the GI50 (SK-OV-3; SK-OV-3, 96 h, read-out: SK-OV-3 pGI50 ± SEM (n) (converted)) read?
A: 8.71 nM

Q: What about the GI50 (SK-OV-3; SK-OV-3, 96 h, CellTiter-Blue, geometric mean, read-out: SK-OV-3 GI50) of the same compound?
A: 8.8 nM

Q: And the Fmax (Mouse blood PK (BALB/c); BALB/c mice)?
A: 62%

Q: And the “iv Cltb” value (Mouse blood PK (BALB/c); BALB/c mice, iv 5 mg/kg (18: 1 mg/kg), 90% CI)?
A: 34 (36–32) mL/min/kg

Q: And the “Free Cav^0–24h” value (Mouse blood PK (BALB/c); BALB/c mice, po, AUC^inf/24*fub)?
A: 0.66 nM

Q: What about the CLu (Mouse blood PK (BALB/c); BALB/c mice, CLtb/fub) of the same compound?
A: 1100 mL/min/kg

Q: And the Vdu (Mouse blood PK (BALB/c); BALB/c mice, Vss/fub)?
A: 80 L/kg

Q: And the extraction ratio (Mouse blood PK (BALB/c); BALB/c mice, hepatic blood flow 90 mL/min/kg)?
A: 38%

Q: What about the Vd (Mouse blood PK (BALB/c); female, BALB/c, mouse, in vivo, iv) of the same compound?
A: 2.6 L/kg

Q: And the half-life at 24 h (Mouse blood PK (BALB/c); female, BALB/c, mouse, in vivo, iv, 5 mg/kg)?
A: 1.2 h

Q: What about the Cmax (Mouse blood PK (BALB/c); [16]) of the same compound?
A: 130 nM

Q: And the Tmax at 24 h (Mouse blood PK (BALB/c); [16])?
A: 1.7 h

Q: And the bioavailability at 24 h (Mouse blood PK (BALB/c); [16])?
A: 11%

Q: And the AUC (Mouse blood PK (BALB/c); female, BALB/c, mouse, in vivo, po, 5 mg/kg, AUCu^0–6h, BALB/c mice, AUC*fub)?
A: 0.014 µM·h

Q: What about the AUC (Mouse blood PK (BALB/c); female, BALB/c, mouse, in vivo, po, 5 mg/kg, po AUC^0–6h, BALB/c mice, po 5 mg/kg, 90% CI) of the same compound?
A: 0.43 µM·h

Q: What about the microsomal CLint (in vitro [8]; male, CD1, mouse, microsomes, pH 7.4, n = 1, fraction unbound assumed 1, read-out: Microsome Clint, mouse (MLM)) of the same compound?
A: 10 µL/min/mg

Q: What about the “Pred. in vivo CLu from MLM” value (in vitro [8]; scaling factors, well-stirred model) of the same compound?
A: 39 mL/min/kg

Q: And the solubility kinetic at 2 h, 100 µM (physchem [9])?
A: 80 µM (≈ 46.4 µg/mL)

Q: What about the microsomal CLint at 0.75 h, 1 µM (in vitro [10]) of the same compound?
A: 43 µL/min/mg

Q: And the Vd ([11]; CF1 mdr1a P-gp deficient (CF1-Abcb1amds), CF1^PGP-KO mice)?
A: 3.6 L/kg

Q: And the Vd ([11]; CF1 wild type, CF1^WT mice)?
A: 3.2 L/kg

Q: And the “Extraction Ratio (% of HBF)” value (P-gp; CF1^PGP-KO mice)?
A: 27 (21-34) %

Q: What about the Cltb (P-gp; CF1^PGP-KO mice) of the same compound?
A: 24 mL/min/kg and 24 (31-19) mL/min/kg

Q: And the “Extraction Ratio (% of HBF)” value (P-gp; CF1^WT mice)?
A: 39 (46-33) %

Q: And the Cltb (P-gp; CF1^WT mice)?
A: 35 mL/min/kg and 35 (42-30) mL/min/kg

Q: And the fub [4]?
A: 0.032

Q: And the “Plasma, fup” value [4]?
A: 0.042 (0.071-0.024)

Q: And the blood plasma ratio at 30 min, 1 µM ([4]; female, BALB/c, mouse, plasma)?
A: 1.3

Q: And the hepatocyte CLint at 1 h, 1 µM (in vitro [12]; hepatocytes, n = 1, read-out: Mouse Heps CLint)?
A: 20 µL/min/1e6 cells

Q: What about the “Pred. in vivo CLu from Heps” value (in vitro [12]; fraction unbound in assay assumed 0.4 or 0.2) of the same compound?
A: 460 ^h mL/min/kg

Q: And the “CH1^doxR/CH1^WT (fold resistance)” value [13]?
A: 8.4

Q: And the microsomal CLint at 0.75 h, 1 µM (in vitro [14])?
A: 7 µL/min/mg

Q: What about the chromatographic logD (physchem [15]) of the same compound?
A: 1.9
